Data taken from patent US12534748B2, “Engineered beta-subunit of tryptophan synthase for production of non-canonical amino acids” (California Institute of Technology, priority 2015, dated 2026).
Where “and” joins values, the source holds several entries; their conditions need not be identical. Equal values may be shown once.

Tests used:
[1] = biological target: T1, Pyrococcus furiosus tryptophan synthase complex PfTrpS (PfTrpA + PfTrpB) (Pyrococcus furiosus, UniProt Q8U093); assay: Tryptophan formation from L-serine and indole, kinetics of PfTrpS complex; format: biochemical
T1 sequence (Q8U093 with tags, fused parts or gaps): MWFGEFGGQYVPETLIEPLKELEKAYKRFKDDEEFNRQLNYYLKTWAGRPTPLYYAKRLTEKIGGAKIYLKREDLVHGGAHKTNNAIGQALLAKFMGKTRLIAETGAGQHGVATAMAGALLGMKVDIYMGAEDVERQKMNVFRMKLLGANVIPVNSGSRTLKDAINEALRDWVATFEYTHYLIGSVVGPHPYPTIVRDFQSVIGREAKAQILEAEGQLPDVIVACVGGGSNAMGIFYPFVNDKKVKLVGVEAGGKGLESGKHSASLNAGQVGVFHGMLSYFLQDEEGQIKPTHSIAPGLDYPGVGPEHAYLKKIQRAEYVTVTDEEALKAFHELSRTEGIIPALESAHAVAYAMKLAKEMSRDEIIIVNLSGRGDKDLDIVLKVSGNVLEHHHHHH
T1 sequence (Q8U094 1-248 partner): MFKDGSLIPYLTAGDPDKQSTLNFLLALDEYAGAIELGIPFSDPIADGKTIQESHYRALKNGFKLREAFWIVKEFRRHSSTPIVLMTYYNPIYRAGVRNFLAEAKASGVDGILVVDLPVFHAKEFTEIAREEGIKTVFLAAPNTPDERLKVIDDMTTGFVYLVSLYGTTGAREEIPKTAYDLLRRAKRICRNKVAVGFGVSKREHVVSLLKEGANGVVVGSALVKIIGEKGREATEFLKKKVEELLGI
Procedure: (§1) Cloning, Expression, and Purification of PfTrpA and PfTrpB. The genes encoding PfTrpB (UNIPROT ID Q8U093) and PfTrpA (UNIPROT ID Q8U094) were obtained as gBlocks and cloned into pET22(b)+ for expression in E. coli BL21 E. cloni EXPRESS cells (Lucigen). Heterologous protein expression of PfTrpA and PfTrpB was performed in Terrific Broth with 100 μg/mL ampicillin (TBamp) and induced with 500 mM IPTG (final concentration 1 mM). PfTrpB was purified via a HisTrap HP column. PfTrpA was purified via a Q HP HiTrap column (flow-through), followed by ammonium sulfate precipitation, and hydrophobic interaction chromatography on a phenyl Sepharose HP HiTrap column (FIG. 3).
(§2) Kinetics and UV-Vis Spectroscopy.
Selection of the Parent Enzyme, TrpB, from Pyrococcus furiosus.

[2] = biological target: T2, Pyrococcus furiosus tryptophan synthase beta-subunit PfTrpB, wild type, SEQ ID NO: 2 (Pyrococcus furiosus, UniProt Q8U093); assay: Tryptophan formation from L-serine and indole, kinetics of wild-type PfTrpB; format: biochemical; settings: 75° C., pH 8.0, Trp formation at 290 nm
T2 sequence (Q8U093 with tags, fused parts or gaps): T1 sequence (Q8U093 with tags, fused parts or gaps)
Procedure: as §1
Kinetics and UV-Vis Spectroscopy. Data were collected between 550 and 250 nm on a UV1800 Shimadzu spectrophotometer (Shimadzu) using 0.25-20 μM of enzyme in 200 mM potassium phosphate (pH 8.0) in a quartz cuvette. Samples were incubated at 75° C. for >3 min to ensure a stable temperature was reached. PfTrpB activity (kcat) was measured by monitoring tryptophan formation at 290 nm using Δe290=1.89 mM^−1·cm^−1.
Selection of the Parent Enzyme, TrpB, from Pyrococcus furiosus. […]

[3] = biological target: T3, Thermotoga maritima TrpB variant TmTrpB^0B2 (P14L, P19G, I69V, L274S, T292S) (Thermotoga maritima, UniProt P50909, I69V/L274S/P14L/P19G/T292S); assay: Tryptophan formation from L-serine and indole, kinetics of TmTrpB^0B2
T3 sequence (P50909 with tags, fused parts or gaps P14L/P19G/I69V/L274S/T292S): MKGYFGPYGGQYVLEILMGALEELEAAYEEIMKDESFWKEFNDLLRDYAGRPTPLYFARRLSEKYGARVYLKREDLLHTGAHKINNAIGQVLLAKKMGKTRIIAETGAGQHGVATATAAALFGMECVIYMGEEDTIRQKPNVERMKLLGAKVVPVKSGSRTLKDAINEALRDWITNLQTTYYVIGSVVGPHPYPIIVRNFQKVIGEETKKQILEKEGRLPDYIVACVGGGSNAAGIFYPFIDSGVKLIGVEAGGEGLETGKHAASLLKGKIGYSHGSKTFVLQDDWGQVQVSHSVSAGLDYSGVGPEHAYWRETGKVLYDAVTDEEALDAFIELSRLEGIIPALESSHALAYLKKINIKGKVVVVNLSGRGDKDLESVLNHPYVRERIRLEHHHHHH
Description: as §2
Cloning, expression, and purification of the different orthologs.
The next homolog, TmTrpB, was examined.

With `c1ccc2[nH]ccc2c1` [indole] the kcat ([1]; 75° C.) was 1.0 s⁻¹, the “increase in catalytic efficiency for indole upon complexation” value ([1]; PfTrpS relative to PfTrpB) was 12 fold and the Km ([1]; read-out: KM, indole, 75° C.) was 20 µM. The kcat [2] was 0.31 s⁻¹ and 0.31 ± 0.02 s⁻¹, the kcat ([3]; 75° C.) was 0.11 s⁻¹ and the “kcat relative to wild-type activity” value ([3]; of the wild-type activity) was 10%.
